In PubChem BioAssay (NCI):
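How tested: cells in 96-well plates exposed to compound for 48 hours at five concentrations. At the TGI there is no net growth.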

Columns and labels:
Test in all cases: NCI-60 cell line screen, 48 h
BT-549 breast = system: BT-549 breast
HCT-116 colon = system: HCT-116 colon
HOP-62 NSCLC = system: HOP-62 NSCLC
K-562 leukemia = system: K-562 leukemia
KM12 colon = system: KM12 colon
M14 melanoma = system: M14 melanoma
MDA-N = system: MDA-N
MOLT-4 leukemia = system: MOLT-4 leukemia
OVCAR-4 ovarian = system: OVCAR-4 ovarian
OVCAR-5 ovarian = system: OVCAR-5 ovarian
PC-3 prostate = system: PC-3 prostate
SF-295 CNS = system: SF-295 CNS
SNB-75 CNS = system: SNB-75 CNS
UACC-62 melanoma = system: UACC-62 melanoma

Structure (SMILES)	TGI (BT-549 breast) [µM]	TGI (HCT-116 colon) [µM]	TGI (HOP-62 NSCLC) [µM]	TGI (K-562 leukemia) [µM]	TGI (KM12 colon) [µM]	TGI (M14 melanoma) [µM]	TGI (MDA-N) [µM]	TGI (MOLT-4 leukemia) [µM]	TGI (OVCAR-4 ovarian) [µM]	TGI (OVCAR-5 ovarian) [µM]	TGI (PC-3 prostate) [µM]	TGI (SF-295 CNS) [µM]	TGI (SNB-75 CNS) [µM]	TGI (UACC-62 melanoma) [µM]
CC1(c2nc3ccccc3[nH]2)CCC(C(=O)O)C(C)(C)O1 (configuration not stated)	> 100	> 100	> 100	> 100	> 100	> 100	> 100	> 100	> 100	> 100	> 100	> 100	> 100	> 100
N[C@H](C(=O)O)[C@@H]1CC(Br)=NO1	> 100	> 100	> 100	> 100	> 100	> 100	> 100	> 100	> 100	> 100	> 100	> 100	> 100	> 100
COc1ccc2c(c1)c1c(n2CCN(C)C)-c2ccccc2CC1	30.7	28.7	30.5	29.8	28	29.3	30.5	35.8	31.4	32.2	25.2	30.6	26.6	28
CCOP1(=O)CC(C)=C(Cl)C(O)C1 (configuration not stated)	> 100	> 100	> 100	> 100	> 100	> 100	> 100	> 100	> 100	> 100	> 100	> 100	> 100	> 100
CC1(C)OC(=S)N(c2ccccc2)C12C=Cc1ccccc1O2 (configuration not stated)	> 100	> 100	> 100	> 100	> 100	> 100	> 100	76.5	> 100	> 100	> 100	> 100	> 100	> 100
CC(=O)OCC(=O)O[C@@H]1[C@H]2[C@@H](OC(=O)c3ccccc3)[C@@H](C)C[C@]2(O)[C@H](OC(C)=O)[C@@]2(C)C(OC(C)=O)[C@]1(OC(C)=O)C[C@H]1C(=O)C(C)(C)C[C@@H]12 (some centres not stated)	> 50	> 50	> 50	> 50	> 50	> 50	> 50	> 50	> 50	> 50	> 50	> 50	> 50	> 50
c1cc2nnc1SCCCSc1ccc(nn1)SCCCS2	> 100	> 54.1	> 93.1	> 100	> 100	> 57.6	> 100	> 100	> 100	> 100	> 100	> 100	> 56.6	> 77.6
CC(=O)Oc1ccc(/C=C/C(=O)OCCCOC(=O)/C=C/c2ccc(OC(C)=O)c(OC(C)=O)c2)cc1OC(C)=O	> 100	> 100	> 100	> 100	> 100	> 100	> 100	> 100	> 100	> 100	> 100	> 100	> 100	> 100
Clc1cc(Cl)cc(N=C/C=C/Nc2cc(Cl)cc(Cl)c2)c1	> 100	30.1	51.8	66.2	30.2	47.6	38.6	49.6	32.7	51.9	36.6	51.4	39.3	48
COc1cc2c(c(O)c1OC)C(=O)[C@@H]1CCC(=O)N1C2	> 100	> 100	> 100	> 100	> 100	> 100	> 100	> 100	> 100	> 100	> 100	> 100	> 100	> 100
CCCCc1ccc(-n2sc3ncc(C)cc3c2=O)cc1	40.7	> 100	> 100	> 100	> 100	29.4	> 100	> 100	> 100	57.6	28.2	> 100	> 100	> 100
Cc1cc(N(CCC#N)CCC#N)ccc1/C(N=Nc1cccc(Cl)c1)=N/NC(=O)c1cc(Cl)ccc1O	62	44.4	62	> 100	35.4	49.6	> 100	34.8	55.8	> 100	46.2	> 100	42.1	28.9
O=C(c1cccs1)N(C(=S)OCCOc1ccccc1)c1ccccc1	65.1	44.6	72.5	> 100	81	37.1	33.4	67.9	86.7	70.2	> 100	71	54.7	37.7
Cc1ccc(NC(=O)c2cc(S(=O)(=O)Nc3n[nH]c(=O)[nH]3)c(SSc3cc(Cl)c(C(=O)Nc4ccc(C)cc4)cc3S(=O)(=O)Nc3n[nH]c(=O)[nH]3)cc2Cl)cc1	> 100	> 100	> 100	> 100	> 100	> 100	> 100	> 100	> 100	> 100	> 100	> 100	> 100	> 100
COC(=O)[C@]1(NC(=O)c2ccccc2)C[C@H]1C=O	> 100	> 100	> 100	> 100	> 100	> 100	> 100	> 100	> 100	> 100	> 100	> 100	> 100	> 100
c1ccc2oc(-c3ccc(-c4nc5ccccc5o4)c4c3CC4)nc2c1	> 100	> 100	> 100	> 100	> 100	> 100	> 100	> 100	> 100	> 100	> 100	> 100	> 100	> 100
COc1ccc(/C=N/n2c(C)n[nH]c2=O)c(OC)c1	> 100	> 100	> 100	> 100	> 100	> 100	> 100	> 100	> 100	> 100	> 100	> 100	> 100	> 100
CC(=O)NC1C(OCc2ccccc2)OC(CO)C(O)C1OC(C)C(=O)NC(C)C(=O)NC(CCC(=O)NCCCCNc1c2ccccc2nc2cccc([N+](=O)[O-])c12)C(N)=O (configuration not stated)	0.531	0.068	0.683	12.5	0.692	12.5	0.0532	3.13	0.645	1.65	0.663	1.66	0.569	0.115
CC1=NC(=Cc2ccccc2O)C(=O)N1n1c(-c2ccccc2)nc2ccccc2c1=O	> 100	> 100	> 100	> 100	> 100	> 100	> 100	> 100	> 100	> 100	> 100	> 100	> 100	34.6
COc1c(=O)cc2cc[nH]c3ccn(C)c1c23	> 100	> 100	> 100	> 100	> 100	> 100	> 100	> 100	> 100	> 100	> 100	> 100	> 100	> 100
CCCCCCCC1(N=[N+]=[N-])C(=O)Nc2ccccc2C1=O (configuration not stated)	30.4	32.6	32	61.3	57.7	33.2	37.8	35.2	29.8	34	24.1	36.2	27.1	23.8
NNC(=O)c1c(-c2cccnc2)cnc2ccccc12	> 100	> 100	> 100	> 100	> 100	> 100	> 100	> 100	> 100	> 100	> 100	> 100	> 100	> 100
